Measurements published in PubChem BioAssay AID2060597 (Global Health Medicines R&D, GSK, 2025).
The source made the active and inactive calls.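 Rule for the calls: active = blocking male or female gamete formation with potency of about 10 µM or stronger; inactive = the rest.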

Tested on: not listed separately
Assay: transmission-blocking activity on Pf gametocytes – dual gamete formation, strain 3D7A, dose response (AID 2060597)
Details: P. falciparum 3D7A gametocytes, male exflagellation, 48 h

| Compound | outcome |
| --- | --- |
| O=C(NCCCN1CCc2ccccc21)c1ccc2c(=O)n(Cc3ccccn3)cnc2c1 | active |

Tested on: P. falciparum 3D7A gametocytes, male exflagellation, 48 h
Assay: as above
Details: not given

| Compound | IC50 [µM] |
| --- | --- |
| O=C(Nc1cccnc1)C1CCN(c2ccc(-c3ccco3)nn2)CC1 | > 10 |
| COc1ccc2oc(C(=O)NC3CCC(Oc4ncccn4)CC3)cc2c1 (stereo not drawn) | > 10 |
| O=C(Nc1ccc(N2CCCC2)nc1)N1CCN(c2cnccn2)CC1 | > 10 |
| COc1ccc(NC(=O)c2ccc3c(=O)n(Cc4ccccn4)cnc3c2)cc1N1CCN(C)CC1 | > 10 |
| CN(C(=O)C[C@@H]1CCN(C(=O)C2CC2)C1)c1ccc(-c2ccc(C#N)cc2)cc1 | > 10 |
| Cc1cccc(-c2nn(Cc3ccc(C(=O)NCCCO)cc3)c(=O)cc2N2CCCC(CO)C2)c1 (stereo not drawn) | > 10 |
| N#Cc1cccc(NC(=O)CNc2ccccc2C(=O)NC2CC2)c1 | > 10 |
| Cc1ccc2nc(CCNC(=O)CCS(=O)(=O)c3ccc4c(c3)CC(=O)N4C)[nH]c2c1 | > 10 |
| Cc1cc(-c2cnc(N3CCn4c(nnc4C4CC4)C3)nc2-c2ccncc2)on1 | > 10 |
| O=C(Nc1nnc(-c2ccccc2)s1)N1CCCN(c2ncccn2)CC1 | > 10 |
| CC(C)Oc1ccc(-c2nnc(Oc3cccc4c3CCN(CCC(N)=O)CC4)s2)cc1C#N | > 10 |
| COc1ccc(C(=O)N2CCN(c3ccc(-n4cccn4)nn3)CC2)cc1OC | > 10 |
| O=C(/C=C/c1n[nH]c2ccccc12)Nc1ccc(C(=O)NCCN2CCOCC2)cc1 | > 10 |
| CCN(C(=O)C=Cc1ccc(S(=O)(=O)N2CCc3ccccc32)cc1)C1CCS(=O)(=O)C1 (stereo not drawn) | > 10 |
| O=C1CCCN1c1ccc(S(=O)(=O)N2CCN(S(=O)(=O)c3ccccc3)CC2)cc1 | > 10 |
| O=C(c1cc2ccccc2[nH]1)N1CCC2(CC(Nc3ccncn3)C2)C1 (stereo not drawn) | > 10 |

| Compound | IC50 [µM] |
| --- | --- |
| COc1ccc(N2CCN(C(=O)c3csc(Nc4ccccc4S(C)(=O)=O)n3)CC2)nc1 | > 10 |
| NC(=O)CC1CCN(C(=O)c2sc3sccc3c2Cl)CC1 | > 10 |
| O=C(CCCc1ncc(-c2ccccc2)o1)N1CCOC2CCCC21 (stereo not drawn) | > 10 |
| COc1ccc(-c2ccc(CNC(=O)c3cc(C(=O)NC(C)C)ccc3Cl)cc2)cn1 | > 10 |
| O=C1CSc2ccc(C(=O)Nc3ccc(-c4nnc5n4CCCCC5)cc3)cc2N1 | > 10 |
| N#Cc1c(N)n[nH]c1CCCNC(=O)c1ccc(Cl)c(S(=O)(=O)N2CCCC2)c1 | > 10 |
| Cc1nn(C2CCS(=O)(=O)C2)c(C)c1CN(C)C(=O)CN1C(=O)NC2(CCCCC2C)C1=O (stereo not drawn) | > 10 |
| Cc1cc(Cl)ccc1OCC(=O)N1CCc2c(cnc(C)c2CNC(=O)c2ccc(=O)[nH]n2)C1 | > 10 |
| O=C(CCCc1c[nH]c2ccccc12)N1CCN(c2ccc(N3CCOCC3)nn2)CC1 | > 10 |
| CCCOc1cncc(S(=O)(=O)c2ccc3c(c2)CCN(C2CCC2)CC3)c1 | > 10 |
| CCN(CC)c1ccc(C(=O)COc2ccc3c(c2)CCNCC3)cc1 | > 10 |
| Cn1cccc1C1CCCN1CC(=O)Nc1ccc(S(=O)(=O)N2CCOCC2)cc1 (stereo not drawn) | > 10 |
| O=C(COc1ccc(Br)cc1F)N1CCN(c2cnccn2)CC1 | > 10 |
| O=C(CCn1nnc2cc(S(=O)(=O)N3CCCC3)ccc21)N1CCN(c2ccccn2)CC1 | > 10 |
| O=C(/C=C/c1n[nH]c2ccccc12)N1CCN(c2cnccn2)CC1 | > 5.01 |
| O=C(CCN=C1NS(=O)(=O)c2ccccc21)Nc1ccc(S(=O)(=O)N2CCCC2)cc1 | > 10 |
